# Laboratory results taken from publication PMC8803906, “Metabolite Identification and Pharmacokinetic Behavior of Diaveridine in the Plasma of Pigs and Chickens Based on Radioactive Tracing Coupled With LC/MS-IT-TOF Assay” (Frontiers in Veterinary Science, 2022).
# Entries after “also recorded” stand apart in the source; their conditions may differ. Like-named read-outs stand apart in the source and are kept apart here.
# Experiments:
# [1] = Plasma pharmacokinetics of DVD and its metabolites in chickens after a single oral dose of ^3H-DVD (radioactive tracing, LC-v.ARC/MS-IT-TOF); conditions: for Radioactive compound detected/identified in plasma / Concentration in plasma: single oral ^3H-DVD 10 mg/kg BW; for Concentration in plasma: chickens
# Text: (§1) Four healthy castrated male pigs (Landrace/Doric Cross, 60-d-old, 30 ± 2 kg) were supplied by the China Breeding Pig Testing Center of Huazhong Agricultural University (Wuhan, China). Six healthy Cobb 500 broiler chickens (three female and three male, 40-d-old, 2.5 ± 0.1 kg) were purchased from Wuhan Chia Tai chicken farm (Wuhan, China). All animals were maintained under standard environmental conditions by using normal husbandry practices and were acclimatized for 1 week. The animals were fed a commercial standard diet and water ad libitum, but were fasted overnight before dose administration and up to 4 h after dose administration. All animal care and experimental protocols were conducted in accordance with the Guide for the Care and Use of Laboratory Animals of Hubei Provincial Laboratory Animal Public Service Center (permit number SYXK 2013-0044) and approved by the Ethics Committee of Huazhong Agricultural University.
# (§2) Pigs (n = 4) and chickens (n = 6) were weighed individually and given a single dose of 10 mg/kg BW ^3H-DVD with a specific activity of 0.23 Ci/g. The ^3H-DVD solution was prepared by accurately mixing ^3H-DVD and non-labeled DVD at a mass ratio of 1:96 and diluting it with 0.5% methylcellulose to make a homogeneous suspension with a concentration of 25 mg/ml. The suspension was administered by gastric gavage using a soft stomach tube connected to an injection syringe. About 1.5 ml of blood was collected into heparinized tubes from the anterior venae cavae of pig and the wing veins of chicken at different time points. For pigs, blood was collected before administration and 0.17, 0.33, 0.5, 0.67, 1, 1.5, 2, 4, 6, 8, 12, 24, 48, 72, 168, and 336 h after oral treatment. For chickens, blood was collected before administration and 0.25, 0.5, 1, 1.5, 2, 4, 6, 8, 12, 24, 36, 48, 72, 168, and 336 h after oral dosing. Plasma samples were collected after centrifugation at 4°C and 2,254 × g for 10 min and were stored at −20°C until analysis.
# (§3) Plasma samples were completely thawed at room temperature. Each sample was divided into two parts, one was used for the assay of total radioactivity, and the other was subjected to a MCX Solid Phase Extraction (SPE) procedure for the qualitative and quantitative analysis of DVD-related metabolites.
# (§4) The total radioactivity assay was conducted in accordance with a previous study with a few modifications ([20]). Briefly, 50 μl of plasma was mixed with 50 μl of 0.1 mol/L EDTA-Na and 50 μl of 30% H2O2 at 50°C in a shaking water bath for 2 h for bleaching. The obtained transparent liquid was mixed with 10 ml of Ultima Gold™ scintillation fluid and was analyzed directly using a Packard Tri-Carb 2900 TR liquid scintillation counter (PerkinElmer Life and Analytical Sciences, Waltham, MA, USA). The scintillation counter data were automatically corrected for counting efficiency using an instrument-stored quench curve that was drawn with a series of sealed quenched ^14C standards. All the samples were analyzed in duplicate and the actual radioactivity of each sample was calculated by subtracting the […].
# (§5) A 500 μl plasma sample was adjusted to pH 2.8–3.2 with 1 ml of 1 M hydrochloric acid (HCl), and a […] aliquot of the mixture was placed in a MCX cartridge preconditioned with 3 ml of methanol followed by 3 ml of 0.1 mol/L HCl water. The cartridge was washed with 3 ml of 0.1 mol/L HCl water and then eluted with 5 ml NH4OH/methanol (8:92, v:v). The effluent was concentrated to dryness under a stream of nitrogen at 40°C. The residue was reconstituted in 250 μl of methanol-water (1:9, v:v) before injection onto the LC-v.ARC/MS-IT-TOF system for metabolite identification and quantitation.
# (§6) Measurement of total radioactivity in each sample was conducted using a Packard Tri-Carb 2900 TR liquid scintillation counter. The detection time was 10 min for two cycles.
# [2] = Plasma pharmacokinetics of DVD and its metabolites in pigs after a single oral dose of ^3H-DVD (radioactive tracing, LC-v.ARC/MS-IT-TOF); conditions: for t1/2 (elimination half-life): non-compartmental; for Radioactive compound detected/identified in plasma / Concentration in plasma: single oral ^3H-DVD 10 mg/kg BW; for Concentration in plasma: pigs
# Text: as §1, §2, §3, §4, §5, §6
# [3] = parameters: method as in PMID 22161732; conditions: pig liver microsomes incubated with DVD; cited from earlier work
# [4] = parameters: method as in PMID 4650364; conditions: urine at 8 h after a single oral dose of 10 mg/kg BW TMP; cited from earlier work
# [5] = parameters: method as in PMID 26212255; conditions: cited from earlier work
# [6] = chickens, cited from earlier work
# [7] = pigs, cited from earlier work
# [8] = system: tester strain TA100 and TA98; parameters: method as in PMID 1922158, PMID 26397222; conditions: cited from earlier work
# [9] = chicken plasma, oral ^3H-DVD 10 mg/kg BW
# [10] = pig plasma, oral ^3H-DVD 10 mg/kg BW
# [11] = both, Cobb 500 broiler, in vivo, po, 10 mg/kg
# [12] = male, Landrace/Doric Cross, pig, in vivo, po, 10 mg/kg
# [13] = HPLC-UV method, previous studies
compound,measurement,setting,value
"COc1ccc(Cc2cnc(N)nc2N)cc1OC1OC(C(=O)O)C(O)C(O)C1O (centres unmarked) [D2, monoglucuronide of 3′-desmethyl-DVD]",AUC0−∞,[1]; [9],1730 ± 440 ng·h/mL
same,ClB (total body clearance),[1]; [9],102 ± 26.3 mL/min/kg
same,Cmax (maximum drug concentration),[1]; [9],270 ± 80 ng/mL
same,MRT0−∞,[1]; [9],6.20 ± 0.18 h
same,MRTLast,[1]; [9],4.66 ± 0.17 h
same,Tmax (time to Cmax from time zero),[1]; [9],2 h
same,Vd (apparent volume of distribution),[1]; [9],32.45 ± 12.36 L/kg
same,t1/2 (elimination half-life),"[1]; chicken plasma, oral ^3H-DVD 10 mg/kg BW, non-compartmental",3.56 ± 0.44 h
same,Radioactive compound detected/identified in plasma,[1]; chicken plasma,identified; also recorded: detected
same,Concentration in plasma,[1]; 1 h,120 ± 30 ng/mL
same,Concentration in plasma,[1]; 1.5 h,230 ± 30 ng/mL
same,Concentration in plasma,[1]; 2 h,270 ± 90 ng/mL
same,Concentration in plasma,[1]; 4 h,180 ± 60 ng/mL
same,Concentration in plasma,[1]; 6 h,140 ± 50 ng/mL
same,Concentration in plasma,[1]; 8 h,90 ± 30 ng/mL
same,Concentration in plasma,[1]; 12 h,40 ± 10 ng/mL
same,AUC0−∞,[2]; [10],17580 ± 2320 ng·h/mL
same,ClB (total body clearance),[2]; [10],9.67 ± 1.3 mL/min/kg
same,Cmax (maximum drug concentration),[2]; [10],1380 ± 40 ng/mL
same,MRT0−∞,[2]; [10],23.01 ± 1.48 h
same,MRTLast,[2]; [10],14.91 ± 0.41 h
same,Tmax (time to Cmax from time zero),[2]; [10],2 h
same,Vd (apparent volume of distribution),[2]; [10],15.39 ± 3.28 L/kg
same,t1/2 (elimination half-life),[2]; [10],18.26 ± 1.70 h
same,Radioactive compound detected/identified in plasma,[2]; pig plasma,identified; also recorded: detected
same,Concentration in plasma,"[2]; 0.17 h, ND = below the LOQ",100 ± 30 ng/mL
same,Concentration in plasma,"[2]; 0.33 h, ND = below the LOQ",260 ± 110 ng/mL
same,Concentration in plasma,"[2]; 0.5 h, ND = below the LOQ",520 ± 150 ng/mL
same,Concentration in plasma,[2]; 0.67 h,610 ± 190 ng/mL
same,Concentration in plasma,[2]; 1 h,690 ± 200 ng/mL
same,Concentration in plasma,[2]; 1.5 h,1230 ± 40 ng/mL
same,Concentration in plasma,[2]; 2 h,1380 ± 40 ng/mL
same,Concentration in plasma,[2]; 4 h,660 ± 50 ng/mL
same,Concentration in plasma,[2]; 6 h,500 ± 80 ng/mL
same,Concentration in plasma,[2]; 8 h,410 ± 70 ng/mL
same,Concentration in plasma,[2]; 12 h,350 ± 60 ng/mL
same,Concentration in plasma,[2]; 24 h,270 ± 80 ng/mL
same,Concentration in plasma,[2]; 48 h,90 ± 10 ng/mL
same,Metabolite detected in vitro,[3],no D2 was found
COc1cc(Cc2cnc(N)nc2N)cc(OC)c1O [4′-demethylated TMP],Content in urine,[4],1%
COc1cc(Cc2cnc(N)nc2N)cc(O)c1OC [3′-demethylated TMP],Content in urine,[4],> 30%
"COc1ccc(Cc2cnc(N)nc2N)cc1O [D1, 3′-desmethyl-DVD]",AUC0−∞,[2]; [10],3720 ± 620 ng·h/mL
same,ClB (total body clearance),[2]; [10],46 ± 7.67 mL/min/kg
same,Cmax (maximum drug concentration),[2]; [10],240 ± 50 ng/mL
same,MRT0−∞,[2]; [10],22.93 ± 1.28 h
same,MRTLast,[2]; [10],15.23 ± 0.25 h
same,Tmax (time to Cmax from time zero),[2]; [10],2 h
same,Vd (apparent volume of distribution),[2]; [10],70.38 ± 6.67 L/kg
same,t1/2 (elimination half-life),[2]; [10],17.86 ± 1.30 h
same,Radioactive compound detected/identified in plasma,[2]; pig plasma,identified; also recorded: detected
same,Concentration in plasma,"[2]; 0.5 h, ND = below the LOQ",120 ± 30 ng/mL
same,Concentration in plasma,[2]; 0.67 h,150 ± 20 ng/mL
same,Concentration in plasma,[2]; 1 h,160 ± 40 ng/mL
same,Concentration in plasma,[2]; 1.5 h,190 ± 30 ng/mL
same,Concentration in plasma,[2]; 2 h,240 ± 60 ng/mL
same,Concentration in plasma,[2]; 4 h,160 ± 20 ng/mL
same,Concentration in plasma,[2]; 6 h,100 ± 20 ng/mL
same,Concentration in plasma,[2]; 8 h,80 ± 10 ng/mL
same,Concentration in plasma,[2]; 12 h,80 ± 10 ng/mL
same,Concentration in plasma,[2]; 24 h,60 ± 10 ng/mL
same,Concentration in plasma,[2]; 48 h,20 ± 10 ng/mL
same,Metabolite detected in vitro,[3],detected
"COc1ccc(Cc2cnc(N)nc2N)cc1OC [D0, 5-[(3′,4′-dimethoxyphenyl)methyl]-2,4-pyrimidinediamine, reference compound]",Tmax (time to Cmax from time zero),"[1]; both, Cobb 500 broiler, chicken, in vivo",2.0 ± 0.0 h
same,concentration at 168 h,"[1]; both, Cobb 500 broiler, chicken, in vivo, 10 mg/kg BW",90 ± 30 ng/mL
same,AUC0−∞,"[1]; both, Cobb 500 broiler, chicken, in vivo, po",55300 ng·h/mL
same,AUC(0-inf),[1]; [11],55300 ± 11500 ng·h/mL
same,ClB (total body clearance),[1]; [11],3.17 ± 0.67 mL/min/kg
same,Cmax,[1]; [11],1550 ± 390 ng/mL
same,MRT inf,[1]; [11],66.2 ± 10.7 h
same,MRT last,[1]; [11],43.7 ± 2.42 h
same,half-life,[1]; [11],48.3 ± 12.8 h
same,Tmax (time to Cmax from time zero),[1]; [9],2 h
same,Radioactive compound detected/identified in plasma,[1]; chicken plasma,identified; also recorded: detected
same,Time at which DVD was still detected in plasma,"[1]; chicken plasma, this study",168 h
same,Withdrawal period,[5]; kidney,6.74 days
same,Withdrawal period,[5]; liver,4.94 days
same,Withdrawal period,[5]; muscle,4.77 days
same,Withdrawal period,[5]; skin with fat,4.58 days
same,Tmax (time to Cmax from time zero),"[2]; male, Landrace/Doric Cross, pig, in vivo",2.0 ± 0.0 h
same,concentration at 168 h,"[2]; male, Landrace/Doric Cross, pig, in vivo, 10 mg/kg BW",60 ± 20 ng/mL
same,AUC0−∞,"[2]; male, Landrace/Doric Cross, pig, in vivo, po",33900 ng·h/mL
same,AUC(0-inf),[2]; [12],33900 ± 5810 ng·h/mL
same,ClB (total body clearance),[2]; [12],5 ± 0.83 mL/min/kg
same,Cmax,[2]; [12],490 ± 20 ng/mL
same,MRT inf,[2]; [12],93 ± 12.6 h
same,MRT last,[2]; [12],57.3 ± 1.72 h
same,half-life,[2]; [12],66.4 ± 10.1 h
same,Tmax (time to Cmax from time zero),[2]; [10],2 h
same,Radioactive compound detected/identified in plasma,[2]; pig plasma,identified; also recorded: detected
same,Time at which DVD was still detected in plasma,"[2]; pig plasma, this study",168 h
same,Cmax,[6]; [13],1450 ng/mL
same,Tmax,[6]; [13],3.25 h
same,Time at which DVD was still detected in plasma,"[6]; HPLC-UV, ref Li et al. 15",24 h
same,Cmax,[7]; [13],430 ng/mL
same,Tmax,[7]; [13],1.04 h
same,Time at which DVD was still detected in plasma,"[7]; HPLC-UV, ref Li et al. 15",6 h
same,Mutagenicity,[8]; strain TA100 after metabolic activation with hamster S9 mix,mutagenic
same,Mutagenicity,"[8]; tester strain TA100 and TA98, presence and absence of rat S9 mix",not mutagenic
